19 molecules from ChEMBL document CHEMBL5241058, “Pyrazole-based analogs as potential antibacterial agents against methicillin-resistance staphylococcus aureus (MRSA) and its SAR elucidation” (Eur J Med Chem, 2021) can be followed below.

What all share (assay type): functional
Experiment [1] concerns Staphylococcus aureus. Description: Antimicrobial activity against Methicillin-resistant Staphylococcus aureus CCARM 3506 assessed as bacterial growth inhibition incubated for 24 hrs by ELISA assay. In general terms: In an ELISA, binding on a coated surface is turned into a signal by an enzyme label.
The subject of experiment [2] is Staphylococcus aureus. Kind of experiment: Antimicrobial activity against Methicillin sensitive Staphylococcus aureus assessed as bacterial growth inhibition incubated for 18 hrs.
In experiment [3] the test system is Staphylococcus aureus. Description: Antimicrobial activity against Methicillin-resistant Staphylococcus aureus assessed as bacterial growth inhibition.
Experiment [4] deals with Escherichia coli. Description: Antimicrobial activity against Escherichia coli ATCC 8739 assessed as bacterial growth inhibition incubated for 18 hrs by microdilution method.
The test system of experiment [5] is Salmonella enterica subsp. enterica. Description: Antimicrobial activity against Salmonella typhimurium […] assessed as bacterial growth inhibition incubated for 18 hrs by microdilution method. (Broth dilution looks for growth in wells or tubes with falling amounts of substance.)
Experiment [6] concerns Klebsiella pneumoniae. Description: Antimicrobial activity against Klebsiella pneumoniae ATCC 314588 assessed as bacterial growth inhibition incubated for 18 hrs by microdilution method.
The test system of experiment [7] is Pseudomonas aeruginosa. Description: Antimicrobial activity against Pseudomonas aeruginosa ATCC 27853 assessed as bacterial growth inhibition incubated for 18 hrs by microdilution method.
The test system of experiment [8] is Staphylococcus aureus. Kind of experiment: Antimicrobial activity against Methicillin-resistant Staphylococcus aureus ATCC BAA 1683 assessed as bacterial growth inhibition incubated for 18 hrs by microdilution method.
Experiment [9] concerns Staphylococcus aureus. Kind of experiment: Antimicrobial activity against Methicillin-sensitive Staphylococcus aureus ATCC 33591 assessed as bacterial growth inhibition by microbroth serial dilution method.
The test system of experiment [10] is Staphylococcus aureus. Kind of experiment: Antimicrobial activity against Methicillin-sensitive Staphylococcus aureus ATCC 43300 assessed as bacterial growth inhibition by microbroth serial dilution method.
The test system of experiment [11] is Staphylococcus aureus. Kind of experiment: Antimicrobial activity against Methicillin-sensitive Staphylococcus aureus ATCC 33591 assessed as bacterial growth inhibition incubated for 24 hrs.
Experiment [12] relates to Staphylococcus aureus. Description: Antimicrobial activity against Methicillin-sensitive Staphylococcus aureus ATCC 43300 assessed as bacterial growth inhibition incubated for 24 hrs. The settings on record: ATCC43300.
For experiment [13], the system named is Staphylococcus aureus. Kind of experiment: Antimicrobial activity against Methicillin-resistant Staphylococcus aureus ATCC 33592 assessed as bacterial growth inhibition incubated for 20 to 24 hrs by microdilution assay. Particulars: time 20-24 hrs.
Experiment [14] relates to Staphylococcus aureus. Description: Antimicrobial activity against Methicillin-resistant Staphylococcus aureus ATCC 43300 assessed as bacterial growth inhibition by microdilution method.
The test system of experiment [15] is Staphylococcus aureus. Kind of experiment: Antimicrobial activity against Staphylococcus aureus MTCC 96 assessed as bacterial growth inhibition incubated for 24 to 48 hrs. The settings on record: time 24-48 hrs.
Experiment [16] deals with Staphylococcus aureus. Description: Antimicrobial activity against Staphylococcus aureus MTCC 442 assessed as bacterial growth inhibition incubated for 24 to 48 hrs. The settings on record: time 24-48 hrs.
For experiment [17], the system named is Staphylococcus aureus. Kind of experiment: Antibiofilm activity against Methicillin-resistant Staphylococcus aureus USA 300 relative to control.
In experiment [18] the test system is Staphylococcus aureus. Kind of experiment: Antimicrobial activity against Methicillin-resistant Staphylococcus aureus assessed as bacterial growth inhibition by disc diffusion method. For orientation: A growth-free zone around the sample is the usual read-out of agar diffusion tests.
Experiment [19] relates to Staphylococcus aureus. Description: Antimicrobial activity against Methicillin-resistant Staphylococcus aureus ATCC 3167 assessed as bacterial growth inhibition.
The subject of experiment [20] is Staphylococcus aureus. Description: Antimicrobial activity against vancomycin intermediate-resistant Staphylococcus aureus assessed as bacterial growth inhibition incubated for 24 hrs by microdilution method.
The subject of experiment [21] is Staphylococcus aureus. Description: Antimicrobial activity against Methicillin-resistant Staphylococcus aureus MW2 assessed as bacterial growth inhibition incubated for 18 hrs by microdilution method.
In experiment [22] the test system is Staphylococcus aureus. Description: Antimicrobial activity against Methicillin-sensitive Staphylococcus aureus ATCC 25923 assessed as bacterial growth inhibition.
Experiment [23] relates to Staphylococcus aureus. Kind of experiment: Antimicrobial activity against Methicillin-resistant Staphylococcus aureus BAA-2312 assessed as bacterial growth inhibition.
For experiment [24], the system named is Staphylococcus aureus. Description: Antimicrobial activity against Methicillin-resistant Staphylococcus aureus ATCC 700699 assessed as bacterial growth inhibition.
For experiment [25], the system named is Staphylococcus aureus. Kind of experiment: Antimicrobial activity against Methicillin-resistant Staphylococcus aureus ATCC 33591 assessed as bacterial growth inhibition.
The subject of experiment [26] is Staphylococcus aureus. Kind of experiment: Antimicrobial activity against Methicillin-resistant Staphylococcus aureus ATCC 33592 assessed as bacterial growth inhibition.

Values after ≈ are worked out from the molar mass of the structure shown. Values joined by “and” are separate entries in the source; they are usually repeats but may differ in a detail not shown here. Equal entries are not always repeated. Bounds are passed on as bounds.

What is called MIC is the smallest concentration in the dilution series that meets the test's criterion for growth inhibition. For `COc1c(N2C[C@@H]3CCCN[C@@H]3C2)c(F)cc2c(=O)c(C(=O)O)cn(C3CC3)c12` [MOXIFLOXACIN], the figures for the MIC in experiment [1] and in experiment [2] were 1 µg/mL (≈ 2.49 µM) and 0.06 µg/mL (≈ 0.149 µM), respectively.

Usually MBC stands for the smallest concentration meeting the test's criterion for killing. As for `O=C(O)c1cn(C2CC2)c2cc(N3CCNCC3)c(F)cc2c1=O` [CIPROFLOXACIN], the MBC in [3] amounted to 625 µg/mL (≈ 1890 µM). Besides, the MIC in [4] was more than 1.8 µg/mL; in experiment [5], more than 1.8 µg/mL; in [6], more than 1.8 µg/mL; in experiment [7] it was more than 1.8 µg/mL; in experiment [8] it was 1.84 µg/mL (≈ 5.55 µM).

For `CC(=O)c1nn(-c2ccc([N+](=O)[O-])cc2)cc1C(=O)c1cc2cc(CN3CCN(Cc4ccc5oc(C(=O)c6cn(-c7ccc([N+](=O)[O-])cc7)nc6C(C)=O)cc5c4)CC3)ccc2o1`, the MIC in experiment [9] is 18.1 µM and 9 µM; in experiment [10], 9 µM. The MBC in [10] is 36.2 µM; in experiment [11] it was 36.2 µM (≈ 31.2 µg/mL); in experiment [12] it was 18.1 µM (≈ 15.6 µg/mL).

For `CC(=O)c1c(N2Cc3nn(C)c(N)c3C2)c(F)cc2c(=O)c(C(=O)O)cn(C3CC3)c12`, the MIC in experiment [2] was found to be 0.125 µg/mL (≈ 0.294 µM).

In the case of `O=C(O)c1ccc(-n2cc(/C=N/N(c3ccccc3)c3ccccc3)c(-c3cc4ccccc4oc3=O)n2)cc1`, the MIC in [13] was 3.12 µg/mL (≈ 5.93 µM).

Turning to `O=C1S/C(=C\c2cn(-c3ccccc3)nc2-c2ccc(Cl)cc2Cl)C(=O)N1CCCn1ccc2ccccc21`, the minimal inhibitory concentration (MIC) in experiment [14] amounted to 6.25 µg/mL.

Take `O=C(/C=C/c1ccc([N+](=O)[O-])cc1)N1N=C(c2ccncc2)OC1c1cn(-c2ccccc2)nc1-c1ccc(F)cc1` (stereo not given): the MIC in [15] and in experiment [16] was 12.5 µg/mL (≈ 22.3 µM) each time.

On to `COc1c(N2CCNC(C)C2)c(F)cc2c(=O)c(C(=O)O)cn(C3CC3)c12` (stereo not given) [GATIFLOXACIN], for which the MIC in experiment [2] was 0.06 µg/mL (≈ 0.16 µM).

Take `C[C@H]1COc2c(N3CCN(C)CC3)c(F)cc3c(=O)c(C(=O)O)cn1c23.C[C@H]1COc2c(N3CCN(C)CC3)c(F)cc3c(=O)c(C(=O)O)cn1c23.O` [LEVOFLOXACIN]: the MIC in experiment [2] amounted to 0.125 µg/mL.

As for `C/C(=N/NC(=N)N)c1cnn(-c2ccc(C#Cc3ccccc3)cc2)c1C`, the Activity in experiment [17] is listed as 20%.

For `COc1ccc(Nc2n[nH]c(/N=C\c3ccccc3)c2C(=O)Nc2ccc(C)cc2)cc1`, the MIC in experiment [18] amounted to 15.6 µg/mL (≈ 36.7 µM).

In the case of `Fc1ccc(-c2nn(-c3ccccc3)cc2-c2nc3ccccn3c2Cc2ccccc2)cc1`, the MIC in experiment [4] was less than 1 µg/mL; in experiment [5], less than 1 µg/mL; in experiment [6], less than 1 µg/mL; in experiment [7], less than 1 µg/mL; in [8], 2.5 µg/mL (≈ 5.62 µM).

Consider `COc1cc(/C=C/c2cc(/C=C/c3ccc(OCC(=O)N[C@@H](C)c4ccccc4)c(OC)c3)[nH]n2)ccc1OCC(=O)N[C@@H](C)c1ccccc1`, for which the MIC in [19] stood at 10 µM (≈ 6.87 µg/mL).

Regarding `O=C(/C=C/c1ccc(F)cc1)N1N=C(c2ccncc2)OC1c1cn(-c2ccccc2)nc1-c1ccc(F)cc1` (stereo not given), the MIC in [15] and in [16] was 6.25 µg/mL (≈ 11.7 µM) in each case.

Regarding `O=C1S/C(=C\c2cn(-c3ccccc3)nc2-c2ccc(Cl)cc2)C(=O)N1CCCn1ccc2ccccc21`, the MIC in experiment [14] was more than 50 µg/mL.

Regarding `CCCc1c(-c2ccc(O)cc2)nn(-c2ccc(O)cc2)c1-c1ccc(O)cc1` [PROPYLPYRAZOLETRIOL], the MIC in experiment [20] and in [21] was 8 µg/mL (≈ 20.7 µM) in each case.

For `O=C(O)c1ccc(-n2cc(/C=N\N(c3ccccc3)c3ccccc3)c(-c3cc4cc(F)ccc4oc3=O)n2)cc1`, the MIC in experiment [22], in experiment [23], in experiment [24], in [25] and in experiment [26] was 3.12 µg/mL (≈ 5.74 µM) in each case.

For the molecule `COc1cc(/C=C/c2cc(/C=C/c3ccc(OCC(=O)NC45CC6CC(CC4C6)C5)c(OC)c3)[nH]n2)ccc1OCC(=O)NC12CC3CC(CC1C3)C2`, in experiment [19], the MIC was 10 µM (≈ 7.19 µg/mL).

Take `C/C(=N/NC1=NCCN1)c1cnn(-c2ccc(C#CC(C)(C)C)cc2)c1C`: the Activity in experiment [17] worked out at 62%.
